In this test the target is Cav3.2 (Homo sapiens, UniProt O95180). Description: Calcium flux FLIPR assay, HEK293 cells recombinantly expressing Cav3.2. It is filed as cell-based. The conditions noted are these: Cav3.2-channel, Ca2+ entry stimulated by 10 mM CaCl2. As to the method: In Vitro Methods—Measurement of Calcium Channel Flux by Means of FLIPR Assays.
HEK293 cells recombinantly expressing either voltage-dependent T-type calcium channel subunit […] (Cav3.2) or voltage-dependent L-type calcium channel subunit alpha-1C (Cav1.2) are assayed for calcium flux using the calcium indicator dye Fluo-4-AM (Molecular Devices) and FLIPR technology (Fluorometric Imaging Plate Reader, Molecular Devices) (Xie X, Van Deusen A L, Vitko I, Babu D A, Davies L A, Huynh N, Cheng H, Yang N, Barrett P Q, Perez-Reyes E. Validation of high throughput screening assays against three subtypes of Ca(v)3 T-type channels using molecular and pharmacologic approaches. Assay and Drug Development Technologies 2007, 5(2), 191-203). The HEK293 cells recombinantly expressing Cav3.2 are maintained in DMEM growth medium (Life Technologies) supplemented with 10% Fetal Bovine Serum (FBS), 100 U/ml penicilin (Life Technologies), 100 μg/ml streptomycin (Life Technologies) and 1 mg/ml G418 (Life Technologies). HEK293 cells recombinantly expressing Cav1.2 are maintained in DMEM growth medium (Life technologies) supplemented with 10% FBS, 0.1 mg/ml G418 (Life Technologies), 0.1 mg/ml hygromycin (Life Technologies) and 40 ug/ml zeocin (Life Technologies).
Cells are washed once with PBS, then dissociated in 0.25% trypsin/EDTA (Life Technologies) and seeded into poly-D-lysine coated 384-well black, clear bottom plates (BD Biosciences) at a density of 30,000 cells/well. The seeded plates are incubated overnight at 37° C.
Immediately prior to performing the assay, medium is removed and cells are treated for 1 hour at 37° C. with loading buffer containing HBSS 1× (137 mM NaCl; 5.4 mM KCl; 0.25 mM Na2HPO4; 1.3 mM CaCl2; 0.4 mM MgSO04; 0.5 mM MgCl2; 0.4 mM KH2PO4, pH 7.4), 0.375 g/L NaHCO3, 20 mM Hepes, supplemented with 3 μM Fluo-4-AM and 0.15% Pluronic (Life Technologies). The cells are then washed three times with assay buffer (HBSS 1×; 0.375 g/L NaHCO3; 20 mM Hepes; 1% FBS; pH 7.4) and allowed to rest in 50 μl of wash buffer for 30 minutes.
Stock solutions of test compounds are prepared to a concentration of 10 mM in DMSO. For the Cav3.2 assay, serial dilutions of the compounds are prepared in TEAC buffer (100 mM tetraethylammonium chloride; 20 mM Hepes; 2.5 mM CaCl2; 5 mM KCl; 1 mM MgCl2; 1% FBS; pH 7.2), for the Cav1.2 assay serial dilutions are prepared in assay buffer. […] The compounds are incubated with the cells for 3 minutes and Ca2+ entry is stimulated by adding either CaCl2 to a final concentration of 10 mM (Cav3.2 assay) or by adding KCl to a final concentration of 20 mM (Cav1.2 assay). The kinetics of fluorescence increase are recorded for every well and the area under the fluorescence trace for every compound concentration is used to generate inhibition curves using non-linear regression sigmoidal concentration-response curve analysis with in-house software. IC50 values are calculated and represent the compound concentration required to inhibit 50% of the signal that is obtained in the presence of vehicle instead of test compound.
In general terms: Calcium assays in cells follow changes in intracellular calcium, usually with a dye or a luminescent sensor.

Consider 26 compounds from US10246426B2, “Triazole compounds as T-type calcium channel blockers” (IDORSIA PHARMACEUTICALS LTD, priority 2014, dated 2019).

Each structure is given as a SMILES string. pIC50: −log10 of the molar value.

Sequence of Cav3.2 (O95180 whole entry, looked up): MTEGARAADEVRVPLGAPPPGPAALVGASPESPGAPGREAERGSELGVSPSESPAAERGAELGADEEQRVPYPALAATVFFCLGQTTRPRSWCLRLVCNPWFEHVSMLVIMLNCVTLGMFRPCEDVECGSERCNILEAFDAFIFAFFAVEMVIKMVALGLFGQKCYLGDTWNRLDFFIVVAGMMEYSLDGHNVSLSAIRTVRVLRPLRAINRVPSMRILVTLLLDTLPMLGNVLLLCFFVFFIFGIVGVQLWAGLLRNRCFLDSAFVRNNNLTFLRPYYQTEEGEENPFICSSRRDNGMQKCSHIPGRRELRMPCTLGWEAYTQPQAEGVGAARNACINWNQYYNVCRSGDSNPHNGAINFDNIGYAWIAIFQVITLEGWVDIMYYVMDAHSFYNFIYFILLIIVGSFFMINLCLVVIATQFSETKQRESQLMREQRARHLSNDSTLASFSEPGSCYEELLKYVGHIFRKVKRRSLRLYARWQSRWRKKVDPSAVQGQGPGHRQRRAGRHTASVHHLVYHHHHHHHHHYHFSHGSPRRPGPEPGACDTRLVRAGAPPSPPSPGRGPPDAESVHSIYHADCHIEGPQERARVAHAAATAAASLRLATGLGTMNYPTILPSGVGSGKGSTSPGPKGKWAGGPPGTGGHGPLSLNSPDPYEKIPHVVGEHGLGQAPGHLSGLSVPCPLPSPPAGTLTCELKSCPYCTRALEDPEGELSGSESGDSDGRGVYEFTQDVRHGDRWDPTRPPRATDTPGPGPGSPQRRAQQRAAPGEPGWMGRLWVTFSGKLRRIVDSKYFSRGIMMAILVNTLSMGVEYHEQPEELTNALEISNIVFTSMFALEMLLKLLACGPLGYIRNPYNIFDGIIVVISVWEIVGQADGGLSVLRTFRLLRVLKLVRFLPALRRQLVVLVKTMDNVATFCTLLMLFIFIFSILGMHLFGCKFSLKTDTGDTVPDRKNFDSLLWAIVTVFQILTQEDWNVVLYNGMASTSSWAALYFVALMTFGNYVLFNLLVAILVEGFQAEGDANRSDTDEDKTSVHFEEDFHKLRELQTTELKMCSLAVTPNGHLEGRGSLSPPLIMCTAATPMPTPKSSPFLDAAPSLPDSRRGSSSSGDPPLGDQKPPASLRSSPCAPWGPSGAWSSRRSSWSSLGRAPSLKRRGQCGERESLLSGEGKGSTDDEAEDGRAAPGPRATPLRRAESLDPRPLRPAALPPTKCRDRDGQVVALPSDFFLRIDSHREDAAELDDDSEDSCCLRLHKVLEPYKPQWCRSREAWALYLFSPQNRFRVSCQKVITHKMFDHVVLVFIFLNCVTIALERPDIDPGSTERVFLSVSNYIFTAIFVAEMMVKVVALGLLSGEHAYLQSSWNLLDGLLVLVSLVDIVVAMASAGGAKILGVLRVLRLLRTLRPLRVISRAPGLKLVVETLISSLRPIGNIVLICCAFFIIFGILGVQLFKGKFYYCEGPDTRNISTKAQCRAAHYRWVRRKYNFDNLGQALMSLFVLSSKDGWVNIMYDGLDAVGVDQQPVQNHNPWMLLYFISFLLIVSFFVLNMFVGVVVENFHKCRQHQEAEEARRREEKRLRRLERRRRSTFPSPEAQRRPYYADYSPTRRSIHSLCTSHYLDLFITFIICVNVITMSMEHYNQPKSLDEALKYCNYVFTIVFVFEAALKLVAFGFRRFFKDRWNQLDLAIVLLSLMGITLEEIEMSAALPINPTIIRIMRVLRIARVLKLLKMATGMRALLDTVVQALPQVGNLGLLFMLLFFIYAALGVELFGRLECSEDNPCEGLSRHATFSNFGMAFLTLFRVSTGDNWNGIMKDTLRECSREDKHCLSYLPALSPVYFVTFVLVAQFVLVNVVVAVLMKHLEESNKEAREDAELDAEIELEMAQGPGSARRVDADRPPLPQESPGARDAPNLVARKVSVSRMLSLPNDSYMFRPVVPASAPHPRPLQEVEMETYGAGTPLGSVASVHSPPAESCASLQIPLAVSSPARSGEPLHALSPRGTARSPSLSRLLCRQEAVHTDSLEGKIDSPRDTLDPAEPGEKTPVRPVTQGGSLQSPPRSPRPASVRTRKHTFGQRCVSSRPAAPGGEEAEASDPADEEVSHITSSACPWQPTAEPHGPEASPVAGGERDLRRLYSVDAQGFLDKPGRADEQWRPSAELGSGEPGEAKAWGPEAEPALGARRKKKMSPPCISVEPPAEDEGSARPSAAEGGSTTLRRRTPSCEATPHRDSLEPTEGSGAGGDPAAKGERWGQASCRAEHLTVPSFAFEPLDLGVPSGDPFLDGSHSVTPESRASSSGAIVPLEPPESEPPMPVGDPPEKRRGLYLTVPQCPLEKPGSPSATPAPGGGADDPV

By pIC50 is commonly meant the IC50 on a negative log10 scale, so that one unit is a factor of ten. `Cc1ccc(Cn2ncc(NC(=O)Cc3ccc(N4CCCC4)nc3)n2)cc1` [Example 68, N-[2-(4-Methyl-benzyl)-2H-[1,2,3]triazol-4-yl]-2-(6-pyrrolidin-1-yl-pyridin-3-yl)-acetamide]: the pIC50 is 7.35.

For `Cc1ccc(Cn2ncc(NC(=O)Cc3ccc4c(cnn4C)c3)n2)cc1` [Example 69, N-[2-(4-Methyl-benzyl)-2H-[1,2,3]triazol-4-yl]-2-(1-methyl-1H-indazol-5-yl)-acetamide], the pIC50 was 7.70.

`Cn1ccc2cc(CC(=O)Nc3cnn(Cc4ccc(C#N)c(F)c4)n3)ccc21` [Example 70, N-[2-(4-Cyano-3-fluoro-benzyl)-2H-[1,2,3]triazol-4-yl]-2-(1-methyl-1H-indol-5-yl)-acetamide]: the pIC50 was 7.74.

Turning to `CC1(c2ccc(CC(=O)Nc3cnn(Cc4ccc(C#N)c(F)c4)n3)cc2)COC1` [Example 72, N-[2-(4-Cyano-3-fluoro-benzyl)-2H-[1,2,3]triazol-4-yl]-2-[4-(3-methyl-oxetan-3-yl)-phenyl]-acetamide], the pIC50 was 7.13.

Regarding `CC(C)(C)c1ccc(CC(=O)Nc2cnn(Cc3ccc(C#N)c(F)c3)n2)cc1` [Example 73, 2-(4-tert-Butyl-phenyl)-N-[2-(4-cyano-3-fluoro-benzyl)-2H-[1,2,3]triazol-4-yl]-acetamide], the pIC50 is 7.43.

`CC(C)c1ccc(CC(=O)Nc2cnn(Cc3ccc(C#N)c(F)c3)n2)cc1` [Example 74, N-[2-(4-Cyano-3-fluoro-benzyl)-2H-[1,2,3]triazol-4-yl]-2-(4-isopropyl-phenyl)-acetamide]: the pIC50 was 7.35.

As for `N#Cc1ccc(Cn2ncc(NC(=O)Cc3ccc(N4CCCC4)nc3)n2)cc1F` [Example 75, N-[2-(4-Cyano-3-fluoro-benzyl)-2H-[1,2,3]triazol-4-yl]-2-(6-pyrrolidin-1-yl-pyridin-3-yl)-acetamide], the negative-log IC50 (pIC50) was 7.06.

For `Cn1ncc2cc(CC(=O)Nc3cnn(Cc4ccc(C#N)c(F)c4)n3)ccc21` [Example 76, N-[2-(4-Cyano-3-fluoro-benzyl)-2H-[1,2,3]triazol-4-yl]-2-(1-methyl-1H-indazol-5-yl)-acetamide], the pIC50 is 6.92.

As for `COc1c(F)cc(Cn2ncc(NC(=O)Cc3ccc4c(ccn4C)c3)n2)cc1F` [Example 77, N-[2-(3,5-Difluoro-4-methoxy-benzyl)-2H-[1,2,3]triazol-4-yl]-2-(1-methyl-1H-indol-5-yl)-acetamide], the pIC50 is 7.89.

With `COc1c(F)cc(Cn2ncc(NC(=O)Cc3ccc(C4(C)COC4)cc3)n2)cc1F` [Example 78, N-[2-(3,5-Difluoro-4-methoxy-benzyl)-2H-[1,2,3]triazol-4-yl]-2-[4-(3-methyl-oxetan-3-yl)-phenyl]-acetamide], the pIC50 was 7.31.

For `COc1c(F)cc(Cn2ncc(NC(=O)Cc3ccc(C(C)(C)C)cc3)n2)cc1F` [Example 79, 2-(4-tert-Butyl-phenyl)-N-[2-(3,5-difluoro-4-methoxy-benzyl)-2H-[1,2,3]triazol-4-yl]-acetamide], the pIC50 is 7.34.

`COc1c(F)cc(Cn2ncc(NC(=O)Cc3ccc(C(C)C)cc3)n2)cc1F` [Example 80, N-[2-(3,5-Difluoro-4-methoxy-benzyl)-2H-[1,2,3]triazol-4-yl]-2-(4-isopropyl-phenyl)-acetamide]: the pIC50 was 7.54.

As for `COc1c(F)cc(Cn2ncc(NC(=O)Cc3ccc(N4CCCC4)nc3)n2)cc1F` [Example 81, N-[2-(3,5-Difluoro-4-methoxy-benzyl)-2H-[1,2,3]triazol-4-yl]-2-(6-pyrrolidin-1-yl-pyridin-3-yl)-acetamide], the pIC50 was 7.55.

On to `COc1c(F)cc(Cn2ncc(NC(=O)Cc3ccc4c(cnn4C)c3)n2)cc1F` [Example 82, N-[2-(3,5-Difluoro-4-methoxy-benzyl)-2H-[1,2,3]triazol-4-yl]-2-(1-methyl-1H-indazol-5-yl)-acetamide], for which the pIC50 was 7.64.

With `COCCOc1ccc(Cn2ncc(NC(=O)Cc3ccc(C(C)(C)C)cc3)n2)cc1` [Example 86, 2-(4-tert-Butyl-phenyl)-N-{2-[4-(2-methoxy-ethoxy)-benzyl]-2H-[1,2,3]triazol-4-yl}-acetamide], the pIC50 is 6.89.

For `COCCOc1ccc(Cn2ncc(NC(=O)Cc3ccc4c(ccn4C)c3)n2)cc1` [Example 87, N-{2-[4-(2-Methoxy-ethoxy)-benzyl]-2H-[1,2,3]triazol-4-yl}-2-(1-methyl-1H-indol-5-yl)-acetamide], the pIC50 was 6.34.

Regarding `CC(C)(C)c1ccc(CC(=O)Nc2cnn(Cc3ccc(OC(F)F)cc3)n2)cc1` [Example 88, 2-(4-tert-Butyl-phenyl)-N-[2-(4-difluoromethoxy-benzyl)-2H-[1,2,3]triazol-4-yl]-acetamide], the pIC50 was 7.25.

Consider `Cn1ccc2cc(CC(=O)Nc3cnn(Cc4ccc(OC(F)F)cc4)n3)ccc21` [Example 89, N-[2-(4-Difluoromethoxy-benzyl)-2H-[1,2,3]triazol-4-yl]-2-(1-methyl-1H-indol-5-yl)-acetamide], for which the pIC50 was 7.70.

Turning to `CC(C)(C)c1ccc(CC(=O)Nc2cnn(Cc3ccc(OC(F)(F)F)cc3)n2)cc1` [Example 90, 2-(4-tert-Butyl-phenyl)-N-[2-(4-trifluoromethoxy-benzyl)-2H-[1,2,3]triazol4-yl]-acetamide], the pIC50 was 6.70.

Consider `Cn1ccc2cc(CC(=O)Nc3cnn(Cc4ccc(OC(F)(F)F)cc4)n3)ccc21` [Example 91, 2-(1-Methyl-1H-indol-5-yl)-N-[2-(4-trifluoromethoxy-benzyl)-2H-[1,2,3]triazol-4-yl]-acetamide], for which the negative-log IC50 (pIC50) was 8.13.

Turning to `Cn1ncc2cc(CC(=O)Nc3cnn(Cc4ccc(OC(F)(F)F)cc4)n3)ccc21` [Example 92, 2-(1-Methyl-1H-indazol-5-yl)-N-[2-(4-trifluoromethoxy-benzyl)-2H-[1,2,3]triazol-4-yl]-acetamide], the pIC50 is 8.00.

Turning to `CC1(c2ccc(CC(=O)Nc3cnn(Cc4ccc(OC(F)(F)F)cc4)n3)cc2)COC1` [Example 93, 2-[4-(3-Methyl-oxetan-3-yl)-phenyl]-N-[2-(4-trifluoromethoxy-benzyl)-2H-[1,2,3]triazol-4-yl]-acetamide], the pIC50 is 7.82.

Turning to `O=C(Cc1ccc(N2CCC(F)(F)C2)nc1)Nc1cnn(Cc2ccc(F)cc2)n1` [Example 94, 2-[6-(3,3-Difluoro-pyrrolidin-1-yl)-pyridin-3-yl]-N-[2-(4-fluoro-benzyl)-2H-[1,2,3]triazol-4-yl]-acetamide], the pIC50 was 8.00.

As to `CCN(CC)c1ccc(CC(=O)Nc2cnn(Cc3ccc(F)cc3)n2)cn1` [Example 95, 2-(6-Diethylamino-pyridin-3-yl)-N-[2-(4-fluoro-benzyl)-2H-[1,2,3]triazol-4-yl]-acetamide], the pIC50 is 7.34.

`CC(C)(C)c1ccc(CC(=O)Nc2cnn(Cc3ccc(C#N)cc3)n2)cc1` [Example 96, 2-(4-tert-Butyl-phenyl)-N-[2-(4-cyano-benzyl)-2H-[1,2,3]triazol-4-yl]-acetamide]: the pIC50 was 7.36.

On to `N#Cc1ccc(Cn2ncc(NC(=O)Cc3ccc(N4CCC(F)(F)C4)nc3)n2)cc1` [Example 97, N-[2-(4-Cyano-benzyl)-2H-[1,2,3]triazol-4-yl]-2-[6-(3,3-difluoro-pyrrolidin-1-yl)-pyridin-3-yl]-acetamide], for which the pIC50 was 7.44.
